For one experiment, the target named is T1, Cdc7-ASK complex (Homo sapiens, UniProt O00311).
T1 construct: made in house; host or cells: E. coli C600 lon-
Nature of the experiment: ELISA system for measuring inhibition of Cdc7-ASK complex phosphorylation activity (GST-Mcm2 (1-130 a.a.) substrate, anti-Mcm2-phospho-S17 antibody). The settings on record: for concentration-dependent inhibitory effect for Cdc7-ASK complex: ELISA, inhibitor dilution series, FIG. 8. The format is biochemical. (An ELISA detects its analyte on a solid surface through an enzyme-linked reagent.)

A further experiment addresses T2, HA-huCdc7 (wild type) (human, UniProt O00311 14-574).
T2 construct: also called HA-Cdc7
As to the kind of experiment: co-purification on glutathione Sepharose 4B from E. coli co-expression, SDS-PAGE with silver staining.

One may read the IC50 as the concentration that gives 50% inhibition. Read a high IC50 as lower potency.

T1 sequence (O00311 14-574 limits assumed, one chain of several): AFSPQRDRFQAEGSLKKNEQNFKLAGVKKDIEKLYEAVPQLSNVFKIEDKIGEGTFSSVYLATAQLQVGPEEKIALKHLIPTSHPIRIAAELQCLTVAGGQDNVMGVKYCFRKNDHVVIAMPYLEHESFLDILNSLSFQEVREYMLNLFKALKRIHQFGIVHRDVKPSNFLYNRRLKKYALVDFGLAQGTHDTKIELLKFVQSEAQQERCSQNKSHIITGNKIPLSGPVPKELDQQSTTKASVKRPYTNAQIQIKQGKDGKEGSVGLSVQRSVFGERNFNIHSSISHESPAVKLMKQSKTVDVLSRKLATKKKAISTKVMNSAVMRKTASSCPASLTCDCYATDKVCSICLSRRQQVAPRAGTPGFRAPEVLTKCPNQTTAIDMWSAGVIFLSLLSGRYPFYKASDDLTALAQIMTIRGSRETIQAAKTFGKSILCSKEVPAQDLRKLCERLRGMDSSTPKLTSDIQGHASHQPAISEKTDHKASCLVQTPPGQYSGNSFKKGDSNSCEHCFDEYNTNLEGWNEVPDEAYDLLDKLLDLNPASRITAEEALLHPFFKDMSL
T2 sequence (O00311 other isoform, or with tags, fused parts or gaps): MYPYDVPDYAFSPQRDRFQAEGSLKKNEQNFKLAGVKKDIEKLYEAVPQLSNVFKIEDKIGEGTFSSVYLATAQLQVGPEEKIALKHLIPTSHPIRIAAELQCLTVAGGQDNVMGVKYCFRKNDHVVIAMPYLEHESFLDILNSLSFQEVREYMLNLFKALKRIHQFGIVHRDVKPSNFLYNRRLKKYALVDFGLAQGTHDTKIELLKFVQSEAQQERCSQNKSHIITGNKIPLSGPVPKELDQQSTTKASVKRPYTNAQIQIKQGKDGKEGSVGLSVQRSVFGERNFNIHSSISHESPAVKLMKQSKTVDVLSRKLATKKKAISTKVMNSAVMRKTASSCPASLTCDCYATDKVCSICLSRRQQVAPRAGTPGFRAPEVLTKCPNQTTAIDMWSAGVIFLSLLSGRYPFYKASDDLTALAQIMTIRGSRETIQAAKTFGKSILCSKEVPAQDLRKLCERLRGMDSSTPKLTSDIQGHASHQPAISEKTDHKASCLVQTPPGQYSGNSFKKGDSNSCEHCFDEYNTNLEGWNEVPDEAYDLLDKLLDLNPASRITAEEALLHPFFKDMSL
Protocol for Cdc7-ASK complex: GST-Mcm2 (1-130 a.a.) and GST-Mcm2 (1-80 a.a.) were diluted to 5 μg/ml using 0.1 M carbonate buffer, pipetted at 50 μl/well in to each well of a microtiter plate for ELISA, and then sensitized overnight at 4° C. The sensitizing solution was removed, a blocking solution (1% BSA, 5% sucrose and 0.1% NaN3/PBS) was pipetted in to each well at 200 μl/well, and the plate was allowed to stand for about one hour at room temperature. The blocking solution was then completely removed. The plates were then air-dried in a draft chamber, and stored at 4° C. until use. GST-Mcm2 (1-130 a.a.) and GST-Mcm2 (1-80 a.a.) were immobilized on the inner walls of the microtiter plates by this procedure.
A recombinant Cdc7-ASK complex dilution series was prepared by diluting from one-fold (×1) to 64-fold in two-fold increments using a phosphorylation buffer. 50 μl aliquots of this solution were added to the wells of the immobilized plates (a protein phosphorylation reaction). After incubating at 30° C. for a fixed period of time, the phosphorylation reaction solution was discarded and each well was amply washed four or more times with PBS. […] The primary antibody reaction solution was then discarded and each well was amply washed four or more times with PBS. Anti-rabbit immunoglobulin antibody (secondary antibody, MBL) labeled with horseradish peroxidase (HRP) was then diluted 1000-fold with PBS and added to each well in 50 μl aliquots, then allowed to react for 30 to 60 minutes at room temperature (secondary antibody reaction). The secondary antibody reaction solution was then discarded and each well was washed four or more times with PBS. A coloring substrate solution was then added to each well in 50 μl aliquots, and color was developed for five to 20 minutes (coloring reaction). The coloring reaction was stopped by adding 50 μl aliquots of reaction stopping solution to each well, and the optical absorbance at 450 nm was measured using a microplate reader. […]

On to `COC(=O)[C@@]1(O)C[C@H]2O[C@]1(C)n1c3ccccc3c3c4c(c5c6ccccc6n2c5c31)C(=O)NC4` [K-252a], for which, at Cdc7-ASK complex, inhibition was half-maximal at 2000 nM (IC50) and the “concentration-dependent inhibitory effect for Cdc7-ASK complex” value was “concentration-dependent”.

Consider `CC[C@H](CO)Nc1nc(NCc2ccccc2)c2ncn(C(C)C)c2n1` [Roscovitine], for which the “concentration-dependent inhibitory effect for Cdc7-ASK complex” value at Cdc7-ASK complex was “not observed”.

B1: GST-TAT-ASK(minimum) (other)
chain: YGRKKRRQRRRDIRYYIEQKKKELYLLKKSSTSVRDGGKRVGSGAQKTRTGRLKKPFVKVEDMSQLYRPFYLQLTNMPFINYSIQKPCSPFDVDKPSSMQKQTQVKLRIQTDGDKYGGTSIQLQLKEKKKKGYCECCLQKYEDLETHLLSEQHRNFAQSNQYQVVDDIVSKLVFDFVEYEKDTPKKK
notes: also called GST-ASK; partial ASK
Consider B1, for which the binding result with HA-huCdc7 (wild type) was “binds”.

The values are drawn from patent US20050250166A1, “Cdc7-ask kinase complex, substrates of the kinase complex, antibody specific to the substrate, and method of screening compound capable of inhibiting cdc7-ask kinase using the same” (Medical and Biological Laboratories Co. Ltd., priority 2002, published 2005).
